According to patent US20030175350A1, “Enteric preparations containing physiologically active peptides” (priority 2000, published 2003):

Tests used:
[1] = Absorbability of compound (1) in cynomolgus monkey by oral administration of tablets; format: in vivo
Description: Blood was periodically collected, plasma was isolated, and then plasma concentration of unchanged was quantified with HPLC.

[2] = rat, in vivo, po; cited from earlier work

Structure (SMILES)	Oral absorbability compared to rat and mouse [1]	Tmax compared to rat and mouse [1]	bioavailability [2] [%]
C[C@@H]1OC(=O)NC1C(=O)N[C@@H](Cc1cscn1)C(=O)N1CCC[C@H]1C (stereo partly drawn) [compound (1)]	decreased absorbability	markedly delayed Tmax	
CN1C(=O)C[C@@H](C(=O)N[C@@H](Cc2c[nH]cn2)C(=O)N2CCC[C@H]2C(N)=O)NC1=O [taltirelin]			3.9
